Key:
P. falciparum = test system: P. falciparum; design: method as in Shahinas et al. [2013]; settings: in vitro against P. falciparum; ref Shahinas et al. [2013]; cited from earlier work
human RBCs = assay: Hemolytic activity test; type: cell-based; settings: human RBCs 2% hematocrit, 72 h, 37 °C, tested at 200, 100, 50, 25 μM
Protocol: The ability to induce membrane damage was assessed by testing the hemolytic activity of those compounds showing inhibition of parasite growth. The assay was adapted from Sousa et al. ([2021]) with modifications. Briefly, 180 μL of human RBCs adjusted to 2% hematocrit in phosphate buffered saline (PBS) were placed into a 96-well microplate and subsequently exposed to 200 μM of each selected compound. As a positive control, 20 μL of 1% sodium dodecyl sulfate (SDS) was added, and a non-drug well was included as a negative control. Free hemoglobin was measured after 72 h of incubation at 37 °C by spectrophotometry at 540 nm (Cytation 3 M, Biotek). Nonspecific absorbance was corrected by subtracting the blank (PBS). Determinations were done by triplicate in at least two independent experiments. Compounds with hemolytic activity at 200 μM were further tested at 100 μM, 50 μM, and 25 μM dilutions.

P. falciparum 3D7 = assay: Growth inhibition of P. falciparum 3D7 cultures, SYBR Green assay; type: cell-based, Plasmodium falciparum; settings: P. falciparum 3D7, 72 h, triplicate
Protocol: Antimalarial activity of the selected compounds was assessed by growth inhibition assays. P. falciparum 3D7 parasites (a chloroquine-sensitive strain) kindly supplied by the Biodefense and Emerging Infections Research Resources Repository (BEI resources, NIAID, NIH, USA) were cultured by the Trager-Jensen method (Trager and Jensen [1976]; Moll et al. [2013]) with modifications. Briefly, parasite-infected red blood cells (RBCs) were kept in continuous culture in complete culture medium (CCM) containing RPMI 1640 (GIBCO), 25 mM hydroxypipazine-N’-2-ethane sulfonic acid (HEPES, Sigma), and 25 μg/mL gentamicin. […] [2013]). Parasite growth was monitored by preparing Giemsa-stained smears. The parasitemia was determined by examination of at least 10 high power magnification fields (hpf) (Moll et al. [2013]), and levels of parasitemia were kept between 5 and 10%. Artemisinin (Sigma) and chloroquine diphosphate salt (Sigma) were used as control drugs. […] Susceptibility assays were performed by the SYBR Green method with modifications (Kato et al. [2018]). Briefly, P. falciparum-infected RBCs cultured under standard conditions were plated at about 2% parasitemia (2% hematocrit), in 96-well microplates, and 10 μM of each compound was added; the final DMSO concentration was less than 0.1%. Parasites were initially incubated for 72 h before addition of lysis buffer (20mM Tris-HCl, 5mM EDTA, 0.008% saponin, 0.08% Triton X-100) supplemented with 0.04% SYBR™ Green I Nucleic Acid (10,000 × in DMSO, Invitrogen), then the microplates were returned to culture for 4 h at room temperature and read in a microplate fluorimeter (Cytation 3 M, Biotek) at excitation 485 nm–emission 530 nm. A control drug for total growth inhibition, a non-drug well and uninfected RBCs were included as positive and negative controls, respectively. The percentage (%) of inhibition was calculated as follows: 1-(fluorescence of treated/nontreated cultures) × 100. […] To do this, parasite cultures were exposed to serial two-fold dilutions of the test compounds ranging from 10 to 0.078 μM. Controls of uninfected RBCs and CQ-treated infected RBCs were included, and the assays were performed in triplicate.

[1] = In vivo toxicity in Galleria mellonella larvae; design: G. mellonella Toxicity class: scale not given here; settings: Galleria mellonella, in vivo, other: injection; larvae, injection, survival monitored 5 days; read-out: G. mellonella LD50
Protocol: (§1) In vivo toxicity was performed using the invertebrate Galleria mellonella model. Healthy, beige larvae weighing 200–250 mg were obtained from the Entomology laboratory at the University and selected for toxicity assays. Groups of ten six-instar larvae were inoculated with 10 μL or 20 μL of each compound at concentrations equivalent to 3000 mg/kg and incubated at 37 °C in darkness. […] The larvae were initially injected with 1000 mg/kg, and if most larvae (> 60%) survived after 5 days, the assay was performed using higher doses up to 3000 mg/kg (Piatek et al. [2021]).

Galleria mellonella = assay: In vivo toxicity in Galleria mellonella larvae; design: G. mellonella Toxicity class: scale not given here; settings: class from LD50 in larvae
Protocol: as §1

[2] = Plasmodium falciparum, 3D7, 72 h

SMILES | IC50 (P. falciparum) [µM] | Hemolytic activity (human RBCs) | IC50 (P. falciparum 3D7) [µM] | IC50 (P. falciparum 3D7; listed as 7) [µM] | IC50 (P. falciparum 3D7; [2]) [µM] | LD50 at 5 days [1] [mg/kg] | G. mellonella Toxicity class (Galleria mellonella) | IC50 (P. falciparum 3D7; listed as 286) [µM] | Hemolytic activity (human RBCs; listed as 296) [µM] | IC50 (P. falciparum 3D7; listed as 712) [µM]
CC(C)NCCCn1c(Sc2cc3c(cc2I)OCO3)nc2c(N)ncnc21 [PU-H71] | 0.11 |  |  |  |  |  |  |  |  | 
O=C(/C=C/c1cccc(Nc2ccnc3cc(Cl)ccc23)c1)c1ccc2c(c1)OCO2 [UV7, Quinolinyl-amino chalcone] |  | > 200 µM | ~1 | 1.07 ± 0.2 | > 1 | 2000 | 5 |  |  | 
CC(=O)N1N=C(c2cccc(Nc3ccncc3)c2)CC1c1ccc(Cl)cc1 (stereo not drawn) [UV285] |  |  |  |  | 1.58 to 2.75 |  |  |  |  | 
CC(=O)N1N=C(c2cccc(Nc3ccncc3)c2)CC1c1ccc(Br)cc1 (stereo not drawn) [UV286] |  | >200 µM | < 1 |  |  | 1500 | 4 | 0.444 ± 0.1 |  | 
COc1ccc(C2CC(c3cccc(Nc4ccncc4)c3)=NN2C(C)=O)cc1 (stereo not drawn) [UV287] |  |  |  |  | 1.58 to 2.75 |  |  |  |  | 
CC(=O)N1N=C(c2cccc(Nc3ccncc3)c2)CC1c1ccc(F)cc1 (stereo not drawn) [UV288] |  |  |  |  | 1.58 to 2.75 |  |  |  |  | 
CC(=O)N1N=C(c2cccc(Nc3ccncc3)c2)CC1c1ccc2c(c1)OCO2 (stereo not drawn) [UV290] |  |  |  |  | 1.58 to 2.75 |  |  |  |  | 
CC(=O)N1N=C(c2cccc(Nc3ccncc3)c2)CC1c1ccc(C)cc1 (stereo not drawn) [UV291] |  |  |  |  | 1.58 to 2.75 |  |  |  |  | 
CC(=O)N1N=C(c2cccc(Nc3ccncc3)c2)CC1c1ccccc1 (stereo not drawn) [UV292] |  | >100 µM | 0.66 ± 0.2 |  | < 1 | 3000 | 5 |  |  | 
COc1ccc(C2CC(c3cccc(Nc4ccncc4)c3)=NN2c2ccccc2)cc1 (stereo not drawn) [UV296] |  | induced RBC hemolysis at lower concentrations | 0.629 ± 0.1 |  | < 1 | 2000 | 5 |  | >25 | 
COc1cc(C2CC(c3cccc(Nc4ccncc4)c3)=NN2c2ccccc2)cc(OC)c1OC (stereo not drawn) [UV297] |  | >200 µM | 0.991 ± 0.28 |  | < 1 | 2000 | 5 |  |  | 
Clc1ccc(N2N=C(c3cccc(Nc4ccncc4)c3)CC2c2ccc3c(c2)OCO3)cc1 (stereo not drawn) [UV306, 4-(pyridyl-aminophenyl)-methyledioxyphenyl-N-(4-chlorophenyl)pyrazoline] |  | 25 µM | 0.71 ± 0.1 |  | < 1 | 2000 | 5 |  |  | 
Nc1ncnc2c1N=C(c1cccc(Nc3ccncc3)c1)CC(c1ccccc1)N2 (stereo not drawn) [UV712, Pyridyl-amino-pyrimido-diazepine] |  | >200 µM | ~1 |  | > 1 | 1000 | 4 |  |  | 1.08 ± 0.2
Nc1nc(N)c2c(n1)NC(c1ccc(Cl)cc1)CC(c1cccc(Nc3ccncc3)c1)=N2 (stereo not drawn) [UV797, Pyridyl-amino-pyrimido-diazepine] |  | > 200 µM | 0.353 ± 0.019 |  |  | 2000 | 5 |  |  | 
Cc1ccc(C2CC(c3cccc(Nc4ccncc4)c3)=Nc3c(N)nc(N)nc3N2)cc1 (stereo not drawn) [UV801, Pyridyl-amino- pyrimido- diazepine] |  | >200 µM | 0.537 ± 0.03 |  | < 1 | 2000 | 5 |  |  | 
Nc1nc(N)c2c(n1)NC(c1ccccc1)CC(c1cccc(Nc3ccncc3)c1)=N2 (stereo not drawn) [UV802, Pyridyl-amino-pyrimido-diazepina] |  | > 200 µM | 0.178 ± 0.04 |  |  | 2000 | 5 |  |  | 

— article PMC10754745, “In silico prediction and in vitro assessment of novel heterocyclics with antimalarial activity” (Parasitology Research, 2023)
